From publication PMC11590026, “Synthesis, enzyme inhibition, and docking studies of new schiff bases of disalicylic acid methylene-based derivatives as dual-target antibacterial agents” (Frontiers in Chemistry, 2024)
In brackets after ≈: the same amount, converted by molar mass. Like-named read-outs stand apart in the source and are kept apart here. One block for each compound: values may come before it.

Experiments:
[1] = tested on: S. aureus; assay: MIC/MBC assay, twofold serial dilution; assay type: cell-based, Staphylococcus aureus
Experimental: (§1) The results of this in vitro assay test are consistent with the findings of the antimicrobial sensitivity test. […] It has lower antimicrobial activity than ciprofloxacin against all pathogens tested.
(§2) The MBC differs from the MIC. […]
(§3) 4.2.2. Minimum inhibitory concentration assay
(§4) In 96-well microtiter plates and […] of fresh bacterial culture of a single McFarland unit overnight, a double serial dilution of each compound […] in sterile standard saline were prepared to every single source well. Ciprofloxacin antibiotic (5 mg / mL - 1) and normal saline were included as standard reference in each assay. The plates were incubated at 37 0C overnight. As an indicator of bacterial growth, […] of p-iodonitrotetrazolium violet (INT) was added to each well and incubated at 37 0C for 30 […]
(§5) min. MIC values are recorded as the lowest concentration of the extract that completely inhibited bacterial growth that is clear well. The colorless tetrazolidium salt acts as an electron accepter and is reduced to a red colored formazan product by biological activity organisms. Where bacterial growth was inhibited, the solution in the well remained clear after incubation with INT. […]

[2] = tested on: B. subtilis; assay: MIC/MBC assay, twofold serial dilution; assay type: cell-based, Bacillus subtilis
Experimental: as §1, §2, §3, §4, §5

[3] = tested on: P. aeruginosa; assay: MIC/MBC assay, twofold serial dilution; assay type: cell-based, Pseudomonas aeruginosa
Experimental: as §1, §2, §3, §4, §5

[4] = tested on: E. coli; assay: MIC/MBC assay, twofold serial dilution; assay type: cell-based, Escherichia coli
Experimental: as §1, §2, §3, §4, §5

[5] = tested on: Gram-positive and Gram-negative bacteria; assay: Disk diffusion inhibition zone, all bacterial pathogens tested; assay type: cell-based
Experimental: (§6) The antimicrobial effects of the currently synthesized Schiff bases (6a-l) were tested against two Gram-positive bacteria (S. aureus and B. subtilis), two Gram-negative bacteria (E. coli and P. aeruginosa), and two strains of fungus (A. flavus and C. albicans). The modified disk diffusion method ([Alkhaldi et al., 2019]; [Manso et al., 2021]) was used to determine the inhibition zones (IZ, mm/mL) and the minimal inhibitory concentration (MIC, nM). Ciprofloxacin and Fluconazole was used as positive controls. Tables 1–3 display the findings.

[6] = tested on: C. albicans; assay: Modified disk diffusion, inhibition zone; assay type: cell-based, Candida albicans
Experimental: as §6, with “findings. […]” for “findings.”
(§7) incubated at 35-37 °C for 24-48 hours and yeast as Candida albicans (ATCC 7102) incubated at 30 °C for 24-48 hours and, then the diameters of the inhibition zones were measured in millimeters. Standard discs of ciprofloxacin (Antibacterial agent), Fluconazole (Antifungal agent) served as positive controls for antimicrobial activity but filter discs impregnated with 10 µl of solvent (distilled water, chloroform, DMSO) were used as a negative control. Blank paper disks (Schleicher & Schuell, Spain) with a diameter of 8.0 mm were impregnated 10µ of tested concentration of the stock solutions. When a filter paper disc impregnated with a tested chemical is placed on agar the chemical will diffuse from the disc into the agar. This diffusion will place the chemical in the agar only around the disc. […]

[7] = tested on: A. flavus; assay: Modified disk diffusion, inhibition zone; assay type: cell-based, Aspergillus flavus
Experimental: as §6, with “findings. […]” for “findings.”
as §7

[8] = molecular target: Topoisomerase IV; details: earlier work; ref Al-Wahaibi et al., 2024; cited from earlier work
[9] = tested on: E. coli; design: method as in Al-Wahaibi et al., 2024; details: ref Al-Wahaibi et al., 2024; cited from earlier work
[10] = tested on: S. aureus; design: method as in Al-Wahaibi et al., 2024; details: ref Al-Wahaibi et al., 2024; cited from earlier work
[11] = tested on: B. subtilis; design: method as in Al-Wahaibi et al., 2024; details: ref Al-Wahaibi et al., 2024; cited from earlier work
[12] = tested on: P. aeruginosa; design: method as in Al-Wahaibi et al., 2024; details: ref Al-Wahaibi et al., 2024; cited from earlier work
[13] = tested on: E. coli; assay: Modified disk diffusion, inhibition zone; assay type: cell-based, Escherichia coli; details: E. coli (G−)
Experimental: as §6, with “findings. […]” for “findings.”
as §7

[14] = tested on: S. aureus; assay: Modified disk diffusion, inhibition zone; assay type: cell-based, Staphylococcus aureus; details: S. aureus (G+)
Experimental: as §6, with “findings. […]” for “findings.”
as §7

[15] = tested on: C. albicans; assay: Antifungal assay (MIC/MFC), twofold serial dilution
[16] = tested on: A. flavus and C. albicans; assay: Disk diffusion inhibition zone, both fungi; assay type: cell-based; details: against A. flavus and C. albicans
Experimental: as §6

[17] = tested on: B. subtilis; assay: Modified disk diffusion, inhibition zone; assay type: cell-based, Bacillus subtilis; details: B. subtilis (G+)
Experimental: as §6, with “findings. […]” for “findings.”
as §7

[18] = tested on: A. flavus; assay: Antifungal assay (MIC/MFC), twofold serial dilution; details: for MIC: A. flavus
[19] = tested on: P. aeruginosa; assay: Modified disk diffusion, inhibition zone; assay type: cell-based, Pseudomonas aeruginosa; details: P. aeruginosa (G−)
Experimental: as §6, with “findings. […]” for “findings.”
as §7

[20] = molecular target: S. aureus topoisomerase IV; details: internal standard value stated in the supplementary method; cited from earlier work

- MIC [1]: 0.03 ± 0.002 µM (≈ 0.00994 µg/mL)
- MIC ([1]; Staphylococcus aureus, read-out: MIC): 0.03 µM (≈ 0.00994 µg/mL)
- MIC [2]: 0.01 ± 0.001 µM (≈ 0.00331 µg/mL)
- MIC ([2]; Bacillus subtilis, read-out: MIC): 0.01 µM (≈ 0.00331 µg/mL)
- MIC ([3]; Pseudomonas aeruginosa, read-out: MIC): 0.06 ± 0.005 µM (≈ 0.0199 µg/mL)
- MIC ([4]; Escherichia coli, read-out: MIC): 0.06 ± 0.004 µM (≈ 0.0199 µg/mL)
SMILES: O=C(O)c1cn(C2CC2)c2cc(N3CCNCC3)c(F)cc2c1=O [Ciprofloxacin, reference compound]
- MBC [1]: 0.045 ± 0.002 µM (≈ 0.0149 µg/mL)
- MBC ([1]; Staphylococcus aureus, read-out: MBC): 0.045 µM (≈ 0.0149 µg/mL)
- MBC [2]: 0.019 ± 0.001 µM (≈ 0.0063 µg/mL)
- MBC ([2]; Bacillus subtilis, read-out: MBC): 0.019 µM (≈ 0.0063 µg/mL)
- MBC [3]: 0.09 ± 0.006 µM (≈ 0.0298 µg/mL)
- MBC ([3]; Pseudomonas aeruginosa, read-out: MBC): 0.09 µM (≈ 0.0298 µg/mL)
- MBC [4]: 0.09 ± 0.006 µM (≈ 0.0298 µg/mL)
- MBC ([4]; Escherichia coli, read-out: MBC): 0.09 µM (≈ 0.0298 µg/mL)
- Inhibition zones (IZ) [5]: 40 mm
- Inhibition zone (IZ) diameter [6]: NA (NA: no activity (8 mm))
- Inhibition zone (IZ) diameter [7]: NA (NA: no activity (8 mm))

SMILES: COc1ccccc1/C=N/NC(=O)c1cc(Cc2ccc(O)c(C(=O)N/N=C/c3ccccc3OC)c2)ccc1O [Compound 5h]
- IC50 [8]: 3.5 µM
- MIC [9]: 0.065 µg/mL (≈ 0.118 µM)
- MIC [10]: 0.030 µg/mL (≈ 0.0543 µM)
- MIC [11]: 0.050 µg/mL (≈ 0.0905 µM)
- Times less potent/effective than ciprofloxacin (MIC) [11]: five times less potent than ciprofloxacin
- MIC [12]: 0.060 µg/mL (≈ 0.109 µM)

SMILES: CN(C)c1ccc(/C=N/NC(=O)c2cc(Cc3ccc(O)c(C(=O)N/N=C/c4ccc(N(C)C)cc4)c3)ccc2O)cc1 [Compound 5i]
- IC50 [8]: 5.8 µM
- Times less potent/effective than ciprofloxacin (MIC) [11]: 7 times

- MIC ([15]; C. albicans): 17.50 ± 1 µM (≈ 5.36 µg/mL)
- MIC ([15]; Candida albicans): 17.5 µM (≈ 5.36 µg/mL)
- MIC [18]: 11.50 ± 1 µM (≈ 3.52 µg/mL)
- MIC ([18]; Aspergillus flavus): 11.5 µM (≈ 3.52 µg/mL)
SMILES: OC(Cn1cncn1)(Cn1cncn1)c1ccc(F)cc1F [Fluconazole, reference compound]
- Inhibition zone (IZ) diameter [13]: NA (NA: no activity (8 mm))
- Inhibition zone (IZ) diameter [14]: NA (NA: no activity (8 mm))
- MFC ([15]; Candida albicans): 35 ± 2 µM (≈ 10.7 µg/mL)
- IZ values [16]: 40 mm
- Inhibition zone (IZ) diameter [17]: NA (NA: no activity (8 mm))
- MFC ([18]; Aspergillus flavus): 22.8 ± 1 µM (≈ 6.98 µg/mL)
- Inhibition zone (IZ) diameter [19]: NA (NA: no activity (8 mm))

SMILES: CO[C@@H]1[C@@H](OC(N)=O)[C@@H](O)[C@H](Oc2ccc3c(O)c(NC(=O)c4ccc(O)c(CC=C(C)C)c4)c(=O)oc3c2C)OC1(C)C [Novobiocin]
- IC50 [20]: 26.7 µM
